#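 Step 1: Grow cells in 96-well plates. Step 2: Expose to compound for 48 hours at 5 concentrations. Step 3: Interpolate endpoints linearly; if unreached, use highest concentration. GI50 is the concentration that inhibits growth by half.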 Activity calls are given as the source filed them. Cut-off read from the data, not from the text of the source: active = GI50 up to about 1.1 µM and inactive = higher.
# What was measured:
# Assay in all cases: DTP human tumour cell line panel, 48 h
# 786-0 = test system: 786-0
# A498 = test system: A498
# COLO 205 = test system: COLO 205
# HCT-116 = test system: HCT-116
# HL-60 = test system: HL-60
# Hs-578T = test system: Hs-578T
# IGROV-1 = test system: IGROV-1
# M14 = test system: M14
# MDA-MB-435 = test system: MDA-MB-435
# MOLT-4 = test system: MOLT-4
# NCI/ADR-RES = test system: NCI/ADR-RES
# OVCAR-5 = test system: OVCAR-5
# PC-3 = test system: PC-3
# SF-295 = test system: SF-295
# SNB-19 = test system: SNB-19
# T47D = test system: T47D
# BT-549 = test system: BT-549
# HOP-62 = test system: HOP-62
# LOX IMVI = test system: LOX IMVI
Compound,GI50 (786-0),GI50 (A498),GI50 (COLO 205),GI50 (HCT-116),GI50 (HL-60),GI50 (Hs-578T),GI50 (IGROV-1),GI50 (M14),GI50 (MDA-MB-435),GI50 (MOLT-4),GI50 (NCI/ADR-RES),GI50 (OVCAR-5),GI50 (PC-3),GI50 (SF-295),GI50 (SNB-19),GI50 (T47D),GI50 (BT-549),GI50 (HOP-62),GI50 (LOX IMVI)
O=c1[nH]nc(N/N=C\c2ccc(Cl)cc2)c2ccccc12,14.8 µM (inactive),30.3 µM (inactive),19.5 µM (inactive),28.2 µM (inactive),> 100 µM (inactive),37 µM (inactive),15.4 µM (inactive),18.7 µM (inactive),17.8 µM (inactive),60.3 µM (inactive),19.6 µM (inactive),16.9 µM (inactive),17.2 µM (inactive),18.5 µM (inactive),20.4 µM (inactive),25.7 µM (inactive),–,–,–
COc1cccc(NC(=O)C(C#N)=C(SC)SC)c1,> 100 µM (inactive),> 100 µM (inactive),> 100 µM (inactive),> 100 µM (inactive),–,> 100 µM (inactive),> 100 µM (inactive),> 100 µM (inactive),> 100 µM (inactive),62.2 µM (inactive),> 100 µM (inactive),> 100 µM (inactive),> 100 µM (inactive),> 100 µM (inactive),57 µM (inactive),–,> 100 µM (inactive),> 100 µM (inactive),> 100 µM (inactive)
O=C(CSc1nc2ccccc2c(=O)n1-c1ccccc1)N/N=C1\C(=O)Nc2ccc(F)cc21,2.34 µM (inactive),1.85 µM (inactive),2.64 µM (inactive),2.02 µM (inactive),1.82 µM (inactive),4.18 µM (inactive),–,1.9 µM (inactive),3.64 µM (inactive),1.61 µM (inactive),2.21 µM (inactive),2.04 µM (inactive),1.85 µM (inactive),1.87 µM (inactive),4.08 µM (inactive),1.87 µM (inactive),–,2.09 µM (inactive),4.31 µM (inactive)
CN(CC(=O)O)c1ncc2c(n1)-c1ccccc1OC2,> 100 µM (inactive),> 100 µM (inactive),> 100 µM (inactive),> 100 µM (inactive),> 100 µM (inactive),> 100 µM (inactive),> 100 µM (inactive),> 100 µM (inactive),> 100 µM (inactive),> 100 µM (inactive),> 100 µM (inactive),> 100 µM (inactive),> 100 µM (inactive),> 100 µM (inactive),> 100 µM (inactive),–,–,–,> 100 µM (inactive)
[O-][S+]1c2ccccc2SCSc2ccccc21,> 100 µM (inactive),> 100 µM (inactive),> 100 µM (inactive),> 100 µM (inactive),–,–,–,> 100 µM (inactive),–,66.5 µM (inactive),> 100 µM (inactive),> 100 µM (inactive),> 100 µM (inactive),> 100 µM (inactive),> 100 µM (inactive),97.7 µM (inactive),–,> 100 µM (inactive),–
[O-][N+]1=[N+]([O-])[C@@H](c2ccccc2)[C@H]1c1ccccc1,13.5 µM (inactive),27.1 µM (inactive),19.3 µM (inactive),16.6 µM (inactive),2.05 µM (inactive),> 100 µM (inactive),12.6 µM (inactive),15.8 µM (inactive),18.7 µM (inactive),21.3 µM (inactive),17.5 µM (inactive),19.9 µM (inactive),17.5 µM (inactive),19.9 µM (inactive),18.4 µM (inactive),–,–,18.7 µM (inactive),15.3 µM (inactive)
O=P(O)(O)CN1CCNCCN(CP(=O)(O)O)CCNCC1,> 30.8 µM (inactive),8.36 µM (inactive),5.13 µM (inactive),4.39 µM (inactive),2.79 µM (inactive),> 100 µM (inactive),6.52 µM (inactive),26.1 µM (inactive),12 µM (inactive),4.66 µM (inactive),35.2 µM (inactive),10 µM (inactive),24.9 µM (inactive),> 100 µM (inactive),> 100 µM (inactive),–,> 100 µM (inactive),> 100 µM (inactive),15.7 µM (inactive)
Oc1ccc(O)c(Cc2ccccc2)c1,14.7 µM (inactive),43.9 µM (inactive),17.4 µM (inactive),–,1.52 µM (inactive),31.9 µM (inactive),–,23.5 µM (inactive),19.5 µM (inactive),6.7 µM (inactive),16.4 µM (inactive),57.5 µM (inactive),27.9 µM (inactive),56.1 µM (inactive),53.1 µM (inactive),0.0887 µM (active),–,27.9 µM (inactive),18.6 µM (inactive)
CCCCCCCCCCCCCCCC1(OC)C[N+](C)(C)CCO1 (stereo not drawn),0.813 µM (active),19.1 µM (inactive),1.31 µM (inactive),1.63 µM (inactive),0.0883 µM (active),1.97 µM (inactive),1.61 µM (inactive),1.65 µM (inactive),1.96 µM (inactive),1.12 µM (inactive),17.9 µM (inactive),2.23 µM (inactive),2.4 µM (inactive),1.69 µM (inactive),1.6 µM (inactive),5.73 µM (inactive),–,1.61 µM (inactive),1.26 µM (inactive)

# Source: ChEMBL document CHEMBL1201862, “PubChem BioAssay data set” (2004)
